# Measured values from patent US20260274814A1, “THIENYL COMPOUNDS FOR THE TREATMENT OF A CENTRAL NERVOUS SYSTEM DISEASE OR DISORDER” (Coreterra Therapeutics, Inc., priority 2023, published 2026).
# Where a name gives a salt, the structure may show the parent alone.
# System: mice
# Test: Neuropharmacological Assay (SmartCube): automated behavioral signature of compound-treated mice compared with a database of reference drug classes
# Format: in vivo
# Conditions: for minimal effective dose: Mus musculus, ip, read-out: MED (minimal effective dose); for minimal effective dose / MED (minimal effective dose): dose having 45% or more total activity in SmartCube, i.p., if only one dose was tested, that dose is shown; for AD / AG / AN / CE / HL / MS / PS / SH / AP / AX / UK: probability that activity matches this class of agents, 3.0 mg/kg i.p., 15 min before test
# Outline: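 Probabilities of matching each neuropharmacological class (e.g. anxiolytic, antidepressant) come from algorithmic analysis of digitally recorded behaviour, reported for 3.0 mg/kg. Compounds were given intraperitoneally in a Pharmasolve/PEG/propylene glycol vehicle 15 min pre-test. Minimal effective dose is the lowest dose reaching 45% or more total activity.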
SMILES,minimal effective dose,AD,AG,AN,CE,HL,MS,PS,SH,AP (3 mg/kg),AX (3 mg/kg),UK (3 mg/kg),MED (minimal effective dose),AP,AX,UK,PS (3 mg/kg),AD (3 mg/kg)
"CNC1CCc2sc(F)cc2C1 (single isomer, unassigned; enantiomer 1) [Compound 98, 2-fluoro-N-methyl-4,5,6,7-tetrahydrobenzothiophen-5-amine hydrochloride enantiomer 1]",3 mg/kg,ND (^ <4%),ND (^ <4%),ND (^ <4%),ND (^ <4%),ND (^ <4%),ND (^ <4%),ND (^ <4%),ND (^ <4%),++ (≥24%),+ (≥4%),++ (≥24%),,,,,,
"CNC1(C)CCc2cscc2C1 (single isomer, unassigned; enantiomer 1) [Compound 101, N, 5-dimethyl-6,7-dihydro-4H-2-benzothiophen-5-amine hydrochloride enantiomer 1]",,++++ (≥74%),ND (^ <4%),ND (^ <4%),ND (^ <4%),ND (^ <4%),ND (^ <4%),,ND (^ <4%),,,,3 mpk,ND (^ <4%),ND (^ <4%),ND (^ <4%),ND (^ <4%),
"CNC1CCc2c(C)sc(C(F)(F)F)c2C1 (single isomer, unassigned; enantiomer 1) [Compound 104, N, 1-dimethyl-3-(trifluoromethyl)-4,5,6,7-tetrahydro-2-benzothiophen-5-amine hydrochloride enantiomer 1]",3 mg/kg,ND (^ <4%),ND (^ <4%),ND (^ <4%),ND (^ <4%),ND (^ <4%),ND (^ <4%),ND (^ <4%),ND (^ <4%),++ (≥24%),,++ (≥24%),,,ND (^ <4%),,,
"CNC1CCc2c(C(F)(F)F)sc(C)c2C1 (single isomer, unassigned; enantiomer 1) [Compound 106, N, 3-dimethyl-1-(trifluoromethyl)-4,5,6,7-tetrahydro-2-benzothiophen-5-amine hydrochloride enantiomer 1]",,,ND (^ <4%),ND (^ <4%),ND (^ <4%),ND (^ <4%),ND (^ <4%),ND (^ <4%),ND (^ <4%),,,++ (≥24%),3 mpk,ND (^ <4%),ND (^ <4%),,,+ (≥4%)
"CNC1CCc2sc(F)cc2C1 (single isomer, unassigned; enantiomer 2) [Compound 99, 2-fluoro-N-methyl-4,5,6,7-tetrahydrobenzothiophen-5-amine hydrochloride enantiomer 2]",,ND (^ <4%),ND (^ <4%),ND (^ <4%),ND (^ <4%),ND (^ <4%),ND (^ <4%),ND (^ <4%),ND (^ <4%),ND (^ <4%),ND (^ <4%),+++ (≥49%),3 mpk,,,,,
"CNC1(C)CCc2cscc2C1 (single isomer, unassigned; enantiomer 2) [Compound 102, N, 5-dimethyl-6,7-dihydro-4H-2-benzothiophen-5-amine hydrochloride enantiomer 2]",,++++ (≥74%),ND (^ <4%),ND (^ <4%),ND (^ <4%),ND (^ <4%),ND (^ <4%),,ND (^ <4%),,,,1 mpk,ND (^ <4%),ND (^ <4%),ND (^ <4%),+ (≥4%),
"CNC1CCc2c(C)sc(C(F)(F)F)c2C1 (single isomer, unassigned; enantiomer 2) [Compound 105, N, 1-dimethyl-3-(trifluoromethyl)-4,5,6,7-tetrahydro-2-benzothiophen-5-amine hydrochloride enantiomer 2]",,ND (^ <4%),ND (^ <4%),ND (^ <4%),ND (^ <4%),ND (^ <4%),ND (^ <4%),ND (^ <4%),ND (^ <4%),ND (^ <4%),,ND (^ <4%),>3 mpk,,ND (^ <4%),,,
"CNC1CCc2c(C(F)(F)F)sc(C)c2C1 (single isomer, unassigned; enantiomer 2) [Compound 107, N, 3-dimethyl-1-(trifluoromethyl)-4,5,6,7-tetrahydro-2-benzothiophen-5-amine hydrochloride enantiomer 2]",,,ND (^ <4%),ND (^ <4%),ND (^ <4%),ND (^ <4%),ND (^ <4%),ND (^ <4%),ND (^ <4%),,,ND (^ <4%),10 mpk,ND (^ <4%),ND (^ <4%),,,ND (^ <4%)
"CNC1Cc2cscc2C1.Cl [Compound 21, N-methyl-5,6-dihydro-4H-cyclopenta[c]thiophen-5-amine hydrochloride]",3 mg/kg,ND (^ <4%),ND (^ <4%),ND (^ <4%),ND (^ <4%),ND (^ <4%),ND (^ <4%),ND (^ <4%),ND (^ <4%),,,,,ND (^ <4%),ND (^ <4%),+++ (≥49%),,
"CNC1CC=Cc2ccsc2C1.Cl (stereo not drawn) [Compound 24, N-methyl-7,8-dihydro-6H-cyclohepta[b]thiophen-7-amine hydrochloride]",3 mg/kg,ND (^ <4%),ND (^ <4%),ND (^ <4%),ND (^ <4%),ND (^ <4%),ND (^ <4%),ND (^ <4%),+++ (≥49%),,,,,ND (^ <4%),ND (^ <4%),ND (^ <4%),,
"CNC1CCc2sc(F)cc2C1 (stereo not drawn) [Compound 82, 2-fluoro-N-methyl-4,5,6,7-tetrahydrobenzothiophen-5-amine hydrochloride]",3 mg/kg,++ (≥24%),ND (^ <4%),ND (^ <4%),ND (^ <4%),ND (^ <4%),ND (^ <4%),ND (^ <4%),ND (^ <4%),,,,,+ (≥4%),ND (^ <4%),++ (≥24%),,
"CNC1COc2csc(Cl)c2C1 (stereo not drawn) [Compound 87, 5-chloro-N-methyl-3,4-dihydro-2H-thieno[3,4-b]pyran-3-amine hydrochloride]",3 mg/kg,ND (^ <4%),ND (^ <4%),ND (^ <4%),ND (^ <4%),ND (^ <4%),ND (^ <4%),ND (^ <4%),ND (^ <4%),,,,,+++ (≥49%),ND (^ <4%),ND (^ <4%),,
"CNC1COc2csc(C)c2C1 (stereo not drawn) [Compound 88, N, 5-dimethyl-3,4-dihydro-2H-thieno[3,4-b]pyran-3-amine hydrochloride]",3 mg/kg,ND (^ <4%),ND (^ <4%),ND (^ <4%),ND (^ <4%),ND (^ <4%),ND (^ <4%),ND (^ <4%),ND (^ <4%),,,,,++++ (≥74%),ND (^ <4%),ND (^ <4%),,
"NC1CCc2csc(Cl)c2C1 (stereo not drawn) [Compound 89, 3-chloro-4,5,6,7-tetrahydro-2-benzothiophen-5-amine hydrochloride]",3 mg/kg,ND (^ <4%),ND (^ <4%),ND (^ <4%),ND (^ <4%),ND (^ <4%),++ (≥24%),ND (^ <4%),ND (^ <4%),,,,,ND (^ <4%),+ (≥4%),ND (^ <4%),,
"CNC1CCc2scc(Cl)c2C1 (stereo not drawn) [Compound 90, 3-chloro-N-methyl-4,5,6,7-tetrahydrobenzothiophen-5-amine hydrochloride]",3 mg/kg,ND (^ <4%),ND (^ <4%),ND (^ <4%),ND (^ <4%),ND (^ <4%),ND (^ <4%),ND (^ <4%),ND (^ <4%),,,,,+++ (≥49%),ND (^ <4%),ND (^ <4%),,
"CNC1CCc2c(sc(C(F)(F)F)c2C)C1 (stereo not drawn) [Compound 91, N, 3-dimethyl-2-(trifluoromethyl)-4,5,6,7-tetrahydrobenzothiophen-6-amine hydrochloride]",> 3 mg/kg,ND (^ <4%),ND (^ <4%),ND (^ <4%),ND (^ <4%),ND (^ <4%),ND (^ <4%),ND (^ <4%),ND (^ <4%),,,,,ND (^ <4%),ND (^ <4%),++ (≥24%),,
